Reference: patent US10329295B2, “Pyrrolotriazine inhibitors of IRAK4 activity” (MERCK SHARP & DOHME CORP., priority 2015, dated 2019)
Structures can show the parent of a compound that is named as a salt.

target: GST tagged IRAK4 (Homo sapiens (Human), UniProt Q9NWZ3); assay: IRAK4 Kinase Assay (IMAP fluorescence polarization); type: biochemical; settings: 0.5 nM GST tagged IRAK4, 100 μM ATP, 30 minutes at 25° C.
Description: The kinase activity of IRAK4 is determined by its ability to catalyze the phosphorylation of a fluorescent polypeptide substrate. The extent of phosphorylation is measured using the IMAP technology (Molecular Devices) where the phosphorylated fluorescent substrate binds to the large M(III)-based nanoparticles which reduces the rotational speed of the substrate and thus increases its fluorescent polarization (FP).
20 μL reaction mixture contains 10 mM TriHCl, pH 7.2, 0.5 nM GST tagged IRAK4 (SignalChem), 100 nM fluorescent peptide substrate (RP7030, Molecular Devices), 100 μM ATP, 1 mM DDT, 1 mM MgCl2, and 0.01% Tween 20. The reaction is initiated by the addition of ATP. After incubation for 30 minutes at 25° C., 60 μL of Progressive IMAP Reagent (Molecular Devices) is added to stop the reaction. Change in RP7030's FP is determined by a FP reader (Analyst HT, LJL BioSystems).

Sequence of GST tagged IRAK4 (Q9NWZ3 whole entry): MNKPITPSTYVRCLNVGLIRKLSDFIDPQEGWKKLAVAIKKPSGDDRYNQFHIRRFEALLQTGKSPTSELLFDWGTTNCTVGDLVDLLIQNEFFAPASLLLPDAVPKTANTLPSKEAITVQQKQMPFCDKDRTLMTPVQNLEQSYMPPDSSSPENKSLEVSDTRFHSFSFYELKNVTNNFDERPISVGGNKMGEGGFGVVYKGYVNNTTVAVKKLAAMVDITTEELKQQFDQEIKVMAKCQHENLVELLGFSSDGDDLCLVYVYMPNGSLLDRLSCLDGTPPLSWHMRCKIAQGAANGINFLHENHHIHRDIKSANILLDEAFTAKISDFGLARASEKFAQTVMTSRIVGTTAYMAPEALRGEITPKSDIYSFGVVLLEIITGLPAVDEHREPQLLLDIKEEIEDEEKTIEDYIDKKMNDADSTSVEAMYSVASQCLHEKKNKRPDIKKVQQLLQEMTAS

IC50 | SMILES
850 nM | N#Cc1ccccc1NC(=O)c1ccc2cnc(N3C[C@@H]4CC[C@H]3CN4)nn12 (single isomer, unassigned) [Example 74, N-(2-cyanophenyl)-2-[(1S,4S)- or (1R,4R)-2,5-diazabicyclo[2.2.2]oct-2-yl]pyrrolo[2,1-f][1,2,4]triazine-7-carboxamide trifluoroacetate]
4000 nM | N#Cc1ccccc1NC(=O)c1ccc2cnc(N3C[C@H]4CC[C@@H]3CN4)nn12 (single isomer, unassigned) [Example 75, N-(2-cyanophenyl)-2-[(1S,4S)- or (1R,4R)-2,5-diazabicyclo[2.2.2]oct-2-yl]pyrrolo[2,1-f][1,2,4]triazine-7-carboxamide trifluoroacetate]
1960 nM | O=C(Nc1ccccc1Br)c1ccc2cnc(N3C[C@H]4CC[C@@H]3CN4)nn12 (single isomer, unassigned) [Example 77, N-(2-bromophenyl)-2-[(1S,4S)- or (1R,4R)-2,5-diazabicyclo[2.2.2]oct-2-yl]pyrrolo[2,1-f][1,2,4]triazine-7-carboxamide trifluoroacetate]
1450 nM | O=C(Nc1ccccc1C(F)(F)F)c1ccc2cnc(N3C[C@@H]4CC[C@H]3CN4)nn12 (single isomer, unassigned) [Example 78, 2-[(1S,4S)- or (1R,4R)-2,5-diazabicyclo[2.2.2]oct-2-yl]-N-[2-(trifluoromethyl)phenyl]-pyrrolo[2,1-f][1,2,4]triazine-7-carboxamide trifluoroacetate]
172 nM | O=C(Nc1cscc1C(F)F)c1ccc2cnc(N3C[C@@H]4CC[C@H]3CN4)nn12 (single isomer, unassigned) [Example 80, 2-[(1S,4S)- or (1R,4R)-2,5-diazabicyclo[2.2.2]oct-2-yl]-N-[4-(difluoromethyl)thiophen-3-yl]pyrrolo[2,1-f][1,2,4]triazine-7-carboxamide trifluoroacetate]
63 nM | O=C(Nc1cscc1C(F)F)c1ccc2cnc(N3C[C@H]4CC[C@@H]3CN4)nn12 (single isomer, unassigned) [Example 81, 2-[(1S,4S)- or (1R,4R)-2,5-diazabicyclo[2.2.2]oct-2-yl]-N-[4-(difluoromethyl)thiophen-3-yl]pyrrolo[2,1-f][1,2,4]triazine-7-carboxamide trifluoroacetate]
7810 nM | O=C(Nc1ccccc1Br)c1ccc2cnc(N3C[C@@H]4CC[C@H]3CN4)nn12 (single isomer, unassigned) [Example 84, N-(2-bromophenyl)-2-[(1S,4S)- or (1R,4R)-2,5-diazabicyclo[2.2.2]oct-2-yl]pyrrolo[2,1-f][1,2,4]triazine-7-carboxamide trifluoroacetate]
2270 nM | O=C(Nc1ccsc1C(F)(F)F)c1ccc2cnc(N3C[C@@H]4CC[C@H]3CN4)nn12 (single isomer, unassigned) [Example 86, 2-[(1S,4S)- or (1R,4R)-2,5-diazabicyclo[2.2.2]oct-2-yl]-N-[2-(trifluoromethyl)thiophen-3-yl]pyrrolo[2,1-f][1,2,4]triazine-7-carboxamide trifluoroacetate]
1440 nM | O=C(Nc1ccsc1C(F)(F)F)c1ccc2cnc(N3C[C@H]4CC[C@@H]3CN4)nn12 (single isomer, unassigned) [Example 87, 2-[(1S,4S)- or (1R,4R)-2,5-diazabicyclo[2.2.2]oct-2-yl]-N-[2-(trifluoromethyl)thiophen-3-yl]pyrrolo[2,1-f][1,2,4]triazine-7-carboxamide trifluoroacetate]
0.7 nM | Cn1cc(NC(=O)c2ccc3cnc(N[C@@H]4CCCCNC4)nn23)c(C(F)F)n1 (single isomer, unassigned) [Example 90, 2-[(3S)- or (3R)-azepan-3-ylamino]-N-[3-(difluoromethyl)-1-methyl-1H-pyrazol-4-yl]pyrrolo[2,1-f][1,2,4]triazine-7-carboxamide trifluoroacetate]
1 nM | Cn1cc(NC(=O)c2ccc3cnc(N[C@H]4CCCCNC4)nn23)c(C(F)F)n1 (single isomer, unassigned) [Example 91, 2-[(3S)- or (3R)-azepan-3-ylamino]-N-[3-(difluoromethyl)-1-methyl-1H-pyrazol-4-yl]pyrrolo[2,1-f][1,2,4]triazine-7-carboxamide trifluoroacetate]
64 nM | Cn1cc(NC(=O)c2ccc3cnc(N4C[C@@H]5CN[C@@H](C5)C4)nn23)c(C(F)(F)F)n1 (single isomer, unassigned) [Example 100, 2-[(1S,5S)- or (1R,5R)-3,6-diazabicyclo[3.2.1]oct-3-yl]-N-[1-methyl-3-(trifluoromethyl)-1H-pyrazol-4-yl]pyrrolo[2,1-f][1,2,4]triazine-7-carboxamide]
277 nM | Cn1cc(NC(=O)c2ccc3cnc(N4C[C@H]5CN[C@H](C5)C4)nn23)c(C(F)(F)F)n1 (single isomer, unassigned) [Example 101, 2-[(1S,5S)- or (1R,5R)-3,6-diazabicyclo[3.2.1]oct-3-yl]-N-[1-methyl-3-(trifluoromethyl)-1H-pyrazol-4-yl]pyrrolo[2,1-f][1,2,4]triazine-7-carboxamide]
10 nM | Cn1cc(NC(=O)c2ccc3cnc(N4C[C@@H]5CN[C@@H](C5)C4)nn23)c(C(F)F)n1 (single isomer, unassigned) [Example 103, 2-[(1S,5S)- or (1R,5R)-3,6-diazabicyclo[3.2.1]oct-3-yl]-N-[3-(difluoromethyl)-1-methyl-1H-pyrazol-4-yl]pyrrolo[2,1-f][1,2,4]triazine-7-carboxamide]
28 nM | Cn1cc(NC(=O)c2ccc3cnc(N4C[C@H]5CN[C@H](C5)C4)nn23)c(C(F)F)n1 (single isomer, unassigned) [Example 104, 2-[(1S,5S)- or (1R,5R)-3,6-diazabicyclo[3.2.1]oct-3-yl]-N-[3-(difluoromethyl)-1-methyl-1H-pyrazol-4-yl]pyrrolo[2,1-f][1,2,4]triazine-7-carboxamide]
368 nM | O=C(Nc1cscc1Cl)c1ccc2cnc(N3C[C@@H]4CC[C@H]3CN4)nn12 (single isomer, unassigned) [Example 107, N-(4-chlorothiophen-3-yl)-2-[(1S,4S)- or (1R,4R)-2,5-diazabicyclo[2.2.2]oct-2-yl]pyrrolo[2,1-f][1,2,4]triazine-7-carboxamide trifluoroacetate]
198 nM | O=C(Nc1cscc1Cl)c1ccc2cnc(N3C[C@H]4CC[C@@H]3CN4)nn12 (single isomer, unassigned) [Example 108, N-(4-chlorothiophen-3-yl)-2-[(1S,4S)- or (1R,4R)-2,5-diazabicyclo[2.2.2]oct-2-yl]pyrrolo[2,1-f][1,2,4]triazine-7-carboxamide trifluoroacetate]
85 nM | Cn1cc(NC(=O)c2ccc3cnc(N4C[C@@H]5CN[C@@H](C5)C4)nn23)c(C#N)n1 (single isomer, unassigned) [Example 113, N-(3-cyano-1-methyl-1H-pyrazol-4-yl)-2-[(1S,5S)- or (1R,5R)-3,6-diazabicyclo[3.2.1]oct-3-yl]pyrrolo[2,1-f][1,2,4]triazine-7-carboxamide]
390 nM | Cn1cc(NC(=O)c2ccc3cnc(N4C[C@H]5CN[C@H](C5)C4)nn23)c(C#N)n1 (single isomer, unassigned) [Example 114, N-(3-cyano-1-methyl-1H-pyrazol-4-yl)-2-[(1S,5S)- or (1R,5R)-3,6-diazabicyclo[3.2.1]oct-3-yl]pyrrolo[2,1-f][1,2,4]triazine-7-carboxamide]
45 nM | Cn1cc(NC(=O)c2ccc3cnc(N4C[C@@H]5CNC[C@H]4C5)nn23)c(C(F)(F)F)n1 (single isomer, unassigned) [Example 116, 2-[(1S,5R)- or (1R,5S)-3,6-diazabicyclo[3.2.1]oct-6-yl]-N-[1-methyl-3-(trifluoromethyl)-1H-pyrazol-4-yl]pyrrolo[2,1-f][1,2,4]triazine-7-carboxamide]
145 nM | Cn1cc(NC(=O)c2ccc3cnc(N4C[C@H]5CNC[C@@H]4C5)nn23)c(C(F)(F)F)n1 (single isomer, unassigned) [Example 117, 2-[(1S,5R)- or (1R,5S)-3,6-diazabicyclo[3.2.1]oct-6-yl]-N-[1-methyl-3-(trifluoromethyl)-1H-pyrazol-4-yl]pyrrolo[2,1-f][1,2,4]triazine-7-carboxamide]
2 nM | Cn1cc(NC(=O)c2ccc3cnc(N4C[C@@H]5CNC[C@H]4C5)nn23)c(C(F)F)n1 (single isomer, unassigned) [Example 119, 2-[(1S,5R)- or (1R,5S)-3,6-diazabicyclo[3.2.1]oct-6-yl]-N-[3-(difluoromethyl)-1-methyl-1H-pyrazol-4-yl]pyrrolo[2,1-f][1,2,4]triazine-7-carboxamide]
15 nM | Cn1cc(NC(=O)c2ccc3cnc(N4C[C@H]5CNC[C@@H]4C5)nn23)c(C(F)F)n1 (single isomer, unassigned) [Example 120, 2-[(1S,5R)- or (1R,5S)-3,6-diazabicyclo[3.2.1]oct-6-yl]-N-[3-(difluoromethyl)-1-methyl-1H-pyrazol-4-yl]pyrrolo[2,1-f][1,2,4]triazine-7-carboxamide]
17 nM | Cn1cc(NC(=O)c2ccc3cnc(N[C@H]4CC(F)(F)CC[C@H]4N)nn23)c(C(F)(F)F)n1 (single isomer, unassigned) [Example 127, 2-{[(1S,2R)- or (1R,2S)-2-amino-5,5-difluorocyclohexyl]amino}-N-[1-methyl-3-(trifluoromethyl)-1H-pyrazol-4-yl]pyrrolo[2,1-f][1,2,4]triazine-7-carboxamide trifluoroacetate]
